Test results reported in publication PMC7464788, “Modification and Targeted Design of N-Terminal Truncates Derived from Brevinin with Improved Therapeutic Efficacy” (Biology, 2020).
≈ marks a conversion by molar mass, not a printed value. Positions of bridges follow the written chain, without caps; N, C: chain ends. Residues, ends and D or L forms follow the SMILES beside them. No end group written: not given here.

Assays:
[1] = tested on: methicillin-resistant S. aureus (MRSA) (NCTC12493); format: cell-based, Staphylococcus aureus
Description: (§1) The antimicrobial assay was carried out to detect the minimum inhibitory concentration (MIC) and the minimum bactericidal concentration (MBC) of each peptide on the microbes as described previously. Seven different microorganisms were used in the assay: Gram-positive bacteria Staphylococcus aureus (NCTC10788), Enterococcus faecalis (NCTC12697), and methicillin-resistant S. aureus (MRSA) (NCTC12493); Gram-negative bacteria Escherichia coli (NCTC10418), Pseudomonas aeruginosa (ATCC27853), and Klebsiella pneumoniae (ATCC 43816); and fungi Candida albicans (NCYC1467). Bacterial strains were inoculated and grown to mid-log phase in fresh Mueller Hinton broth (MHB) at 37 °C for overnight, then bacteria inoculum suspensions were subcultured until reaching the logarithmic growth phase by measuring OD of the cultures at wavelength 550 nm. Then, 99 µL bacteria and 1 µL peptide solution were mixed in the 96-wells microplate. For positive and negative controls, the bacteria were incubated with antibiotics (Norfloxacin for Gram-positive bacteria and Gram-negative bacteria; Amphotericin B for fungi) solution and MHB medium, respectively. Experiments were repeated five times in five replicates.

[2] = tested on: Candida albicans (NCYC1467); format: cell-based
Description: as §1

[3] = tested on: Staphylococcus aureus (NCTC10788); format: cell-based
Description: as §1

[4] = tested on: Pseudomonas aeruginosa (ATCC27853); format: cell-based
Description: as §1

[5] = tested on: Escherichia coli (NCTC10418); format: cell-based
Description: as §1

[6] = tested on: Klebsiella pneumoniae (ATCC 43816); format: cell-based
Description: as §1

[7] = tested on: Enterococcus faecalis (NCTC12697); format: cell-based
Description: as §1

horse erythrocytes = assay: Haemolytic assay; format: cell-based; settings: 2% (v/v) horse red blood cells, 37 °C, 2 h; 1% Triton-X 100 positive control; three times in five replicates
Description: The haemolytic assay was carried out to detect the cytotoxicity of each peptide to erythrocytes obtained from fresh defibrinated horse blood as described before. An appropriate volume of horse blood solution was collected via washing and transferring until the supernatant was clear. Then, 2% (v/v) suspension of red blood cells were incubated with peptide at 37 °C for 2 h. For positive and negative controls, the red blood cells were incubated with 1% (v/v) Triton-X 100 and Phosphate-buffered saline (PBS) solution, respectively. The 10% of maximal haemolysis concentration (HC10, μM) was utilised to assess the haemolytic potential. Experiments were repeated three times in five replicates.

[8] = tested on: Candida albicans (NCYC1467); settings: cited from earlier work
Excerpt: (§2) Although B1PLC had better activity against bacteria, its potency was slightly lower than that of B1PLB against fungi. As we know, the more positive charge of B1PLC (Table 1) could contribute to an enhanced electrostatic interaction with the negatively charged bacterial cell envelope. Therefore, to try to combine the properties of the two peptides, we designed B1A by substitution of the Asn residue at po ...

[9] = tested on: Staphylococcus aureus (NCTC10788); settings: cited from earlier work
Excerpt: as §2

[10] = tested on: Escherichia coli (NCTC10418); settings: cited from earlier work
Excerpt: as §2

| Compound | MBC MRSA [1] [µM] | MIC MRSA [1] [µM] | MBC C. albicans [2] [µM] | MIC C. albicans [2] [µM] | MBC S. aureus [3] [µM] | MBC P. aeruginosa [4] [µM] | MIC P. aeruginosa [4] [µM] | MBC E. coli [5] [µM] | MIC E. coli [5] [µM] | MBC K. pneumoniae [6] [µM] | MIC K. pneumoniae [6] [µM] | MBC E. faecalis [7] [µM] | MIC E. faecalis [7] [µM] | HC10 (concentration causing 10% red cell lysis) (horse erythrocytes) [µM] | Antimicrobial activity against C. albicans [8] | Antimicrobial activity against S. aureus [9] | Antimicrobial activity against E. coli [10] |
| --- | --- | --- | --- | --- | --- | --- | --- | --- | --- | --- | --- | --- | --- | --- | --- | --- | --- |
| CC[C@H](C)[C@@H]1NC(=O)[C@H](C)NC(=O)[C@@H](NC(=O)[C@H](Cc2ccccc2)NC(=O)[C@@H](NC(=O)[C@H](CCCCN)NC(=O)[C@@H]2CCCN2C(=O)[C@H](CC(C)C)NC(=O)[C@H](Cc2ccccc2)NC(=O)[C@H](CCCCN)NC(=O)[C@H](C)NC(=O)[C@H](C)NC(=O)[C@H](CC(C)C)NC(=O)CNC(=O)[C@H](C)NC(=O)[C@@H](NC(=O)[C@H](CC(C)C)NC(=O)[C@@H]2CCCN2C(=O)[C@H](CC(C)C)NC(=O)[C@@H](N)Cc2ccccc2)[C@@H](C)CC)[C@@H](C)CC)CSSC[C@@H](C(=O)O)NC(=O)[C@H](CCCCN)NC(=O)[C@H](CCCCN)NC(=O)[C@H]([C@@H](C)O)NC1=O [Peptide B1A] (H-FLPLIAGLAAKFLPKIFCAITKKC-OH; disulfide 18-24) | 32 (≈ 83.4 µg/mL) | 16 (≈ 41.7 µg/mL) | 8 (≈ 20.8 µg/mL) | 4 (≈ 10.4 µg/mL) | 8 (≈ 20.8 µg/mL) | 64 (≈ 167 µg/mL) | 32 (≈ 83.4 µg/mL) | 32 (≈ 83.4 µg/mL) | 8 (≈ 20.8 µg/mL) | 16 (≈ 41.7 µg/mL) | 16 (≈ 41.7 µg/mL) | 32 (≈ 83.4 µg/mL) | 8 (≈ 20.8 µg/mL) | 1.576 |  |  |  |
| FLPLIAGLAANFLPKIFCAITKKC (disulfide 18-24 (inferred)) [Peptide B1PLB, Brevinin-1PLb, brevinin-1 peptide from the skin secretions of Lithobates palustris (Rana palustris)] |  |  |  |  |  |  |  |  |  |  |  |  |  |  | potent antimicrobial activity | potent antimicrobial activity | potent antimicrobial activity |
| FLPVIAGVAAKFLPKIFCAITKKC (disulfide 18-24 (inferred)) [Peptide B1PLC, brevinin-1PLc, brevinin-1 peptide from the skin secretions of Lithobates palustris (Rana palustris)] |  |  |  |  |  |  |  |  |  |  |  |  |  |  | potent antimicrobial activity | potent antimicrobial activity | potent antimicrobial activity |
